Measurements as given in US8791163B2 (McGill University, priority 2006, dated 2014).
“And” between values parts separate entries of the source, which are not always exact repeats. Equal entries are not always repeated.

Legend:
[1] = tested on: Male rats (Sprague-Dawley); test: EEG and EMG sleep recordings (slow wave sleep, REM sleep, wakefulness); assay type: in vivo, rat; details: 5b 40 mg/kg s.c.; individual rats 1-11
Description: Male rats (Sprague-Dawley) weighing approximately 300-340 g were used for surgical implantation of electroencephalogram (EEG) and electromyogram (EMG) electrodes. Following the recovery from surgery, the animals were housed separately in cages and kept on a 12-hour light/dark cycle (12 h light-12 h dark, 7:30 AM lights on) at a controlled temperature (21° C.). The rats had free access to food and water ad libitum.
Rats were anaesthetized using equithesin (425 mg chloral hydrate, 1 ml 100% ethanol, 98 mg pentobarbitone, 213 mg magnesium sulphate and 3 ml propylene glycol, sterile water per 10 ml of solution; 1 ml per 300 g body weight i.p.) and placed in a stereotactic frame. The skull was exposed and carefully cleaned. Two stainless-steel epidural electrodes were implanted for the registration of the EEG under stereotactic control, through 1.5 mm burr holes at the coordinates corresponding to the right parietal-occipital cortex (AP=−2 mm L=3 mm; AP=−7 mm L=3 mm) and the left parietal-occipital cortex (AP=−4.5 mm L=3 mm) according to the atlas by Paxinos (The Rat Brain in Stereotaxic Coordinates, Academic Press, 1995). Three stainless steel wire electrodes, isolated except for the last few millimeters, were implanted into the neck muscles (two bilaterally and one in the middle) for the monitoring of the EMG. The EEG epidural electrodes and the EMG wires were fitted to a six-pin female connector. For fixation to the skull, the wires and connector were covered with dental acrylic (Coltene/Whaledent Inc. USA). The animals were allowed to recover from the surgery for at least 3-4 days.
Twenty-four hours (24 h) following the surgery, the rats were placed in the recording room from noon to 9:00 PM, for 3-4 days. The rats were connected to the 6-flat cable (3M), in a freely-moving manner, from 6:00 PM to 9:00 PM for habituation. No recordings were performed at this time, however, the tolerance to the cable and the sleep behavior were observed.
Following 3-4 days of habituation, the rats received the injection of a vehicle (DMSO/saline 7:3, 0.2 ml s.c.) at 6:00 PM and the recording was carried out until 9:00 PM. On the following day the rats received diazepam (2 mg/kg, s.c.) at 6:00 PM and the recording was performed until 9:00 PM. Four days following the injection of diazepam, the rat received 5b (40 mg/kg s.c.) and the recording also performed from 6 to 9 PM.
For each experiment, a rat was placed individually in the cage and monitoring of the signal was carried out via the attachment of a non-restraining 6-wire flat cable and a female connector, which was connected to an impedance transformer with a gain of 10, located above the cage. The EEG signal was amplified (resulting in a total gain of 10,000) and locally filtered. The EMG signal was amplified as the EEG, (EEG: low filter 1.0 Hz; high 1 KHz, EMG: low filter 30.0 Hz; high 3 KHz). The power spectra analysis was performed for identification of the sleep stages. The behavior of the animals was observed during the experiment (eye movements, ambulation, rearing etc.).
The three classical vigilance-sleep states described in the rat were discriminated on the basis of the cortical EEG and neck EMG, following the classification by Ruigt et al. (Electroencephalography and clinical Neurophysiology, 1989, 73: 52-63). Wakefulness was identified by a low-amplitude and desynchronized EEG with sustained EMG activity. Slow wave sleep (SWS, includes Quiet sleep, deep sleep and Pre-REM) was clearly distinguished by high-voltage delta waves (2-4 Hz) and spindles associated with a […] EMG activity. Pre-REM sleep was characterized by a clear theta rhythm in the EEG, frequently alternating with short lasting, high voltage spindles. REM sleep was characterized by a low-amplitude EEG with a pronounced theta rhythm (5.5-8.5 Hz), a complete loss of muscle tone, and a low voltage EMG. […]

Male Sprague-Dawley rats = test: Forced Swimming Test (FST); assay type: in vivo, rat; details: 5b 40 mg/kg i.p. 24, 5 and 1 hour prior to the test; vs vehicle
From the text: The forced swimming test (FST), Open field Test (OFT) and the in vivo electrophysiology recording were employed to evaluate the anti-depressant activity, the anti-anxiety activity and the sleep promoting properties of the compounds of the present invention [compounds of Formula (I)]. The following results were obtained using compound 5b. Male Sprague-Dawley rats (225-275 g, Charles-River Saint-Constant, Quebec, Canada) were used. The animals were housed at constant room temperature and humidity under a 12 h light/dark cycle. Food and water were available ad libitum. All procedures were approved by local institutional care and use committees and followed the guidelines released by the Canadian Institutes of Health Research.
The FST is typically a two-day procedure in which rats are immersed in a water containing cylinder (18 cm in diameter; 40 cm high; water 30 cm deep, 25-27° C.) from which they cannot escape. On the first day, the rats are forced to remain in the water bath for 15 minutes (pre-test). During this time, the rats usually struggle to escape, but eventually adopt a posture of immobility in which they emit only the minimal movements necessary to keep their heads above water. The actual test (5 min) occurs 24 h later. When re-immersed in the water, immobility is increased; antidepressant treatments reliably reduce immobility during the test. The FST is both sensitive and selective for clinically effective antidepressants, has been repeatedly validated and is currently the most popular model for detecting antidepressant activity due to its ease of use, reliability and extremely high predictive validity (Lucki, I. (1997) Behav. Pharmacol. 8(6-7): 523-32).
At the end of the pre-test, the rats are removed from the water bath, dried with towels and placed in a warm enclosure for 15 min. The rats are then returned to their respective home cages. […] Behavior is recorded continuously throughout the 5 min test by a video camera positioned directly above the water cylinder. […] The total time for each type of behavior represents the times that a specified behavior is detected. […]

COc1cccc(N(CCNC(C)=O)c2ccccc2)c1 [5b, N-{2-[(3-Methoxyphenyl)-phenylamino]ethyl}acetamide]
REM Sleep Duration [1]: 8.66 min and 7.04 min and 13.89 min and 4.96 min and 8.51 min and 11.6 min and 5.61 min and 7.2 min and 11.18 min and 11.76 min and 9.48 min
REM Sleep Latency [1]: 76.1 min and 62.31 min and 60.92 min and 109.5 min and 86.49 min and 71.16 min and 80.13 min and 101.41 min and 80.26 min and 54.26 min and 43.83 min
REM Sleep Mean of a Single Episode [1]: 1.237 min and 1.76 min and 1.54 min and 1.65 min and 1.063 min and 1.933 min and 1.402 min and 2.4 min and 2.23 min and 1.68 min and 1.896 min
REM Sleep Number (episodes) [1]: 7 episodes (2×) and 4 episodes (2×) and 9 episodes and 3 episodes (2×) and 8 episodes and 6 episodes and 5 episodes (2×)
Slow Wave Sleep Duration [1]: 110.29 min and 73.51 min and 87.14 min and 92.65 min and 89.42 min and 80.00 min and 88.47 min and 79.1 min and 85.8 min and 80.84 min and 104.2 min
Slow Wave Sleep Latency [1]: 15.73 min and 2.73 min and 1.05 min and 11.9 min and 10.85 min and 23.2 min and 25.9 min and 17.62 min and 5.05 min and 25.12 min and 17.24 min
Slow Wave Sleep Mean of a Single Episode [1]: 5.01 min and 2.53 min and 3 min and 3.3 min and 3.43 min and 4.21 min and 2.6 min and 2.26 min and 6.12 min and 7.34 min and 7.44 min
Slow Wave Sleep Number (episodes) [1]: 22 episodes and 29 episodes (2×) and 28 episodes and 26 episodes and 19 episodes and 34 episodes and 35 episodes and 14 episodes (2×) and 11 episodes
Wakefulness Duration [1]: 82.38 min and 82.05 min and 88.37 min and 85.99 min and 93.61 min and 83.69 min and 87.41 min and 90.48 min and 61.05 min and 92.11 min and 78.94 min
Wakefulness Mean of a Single Episode [1]: 3.39 min and 3.54 min and 3.28 min and 2.94 min and 3.56 min and 4.9 min and 2.38 min and 2.75 min and 6.43 min and 14.56 min and 7.54 min
Wakefulness Number (episodes) [1]: 18 episodes (2×) and 26 episodes and 24 episodes and 28 episodes and 23 episodes and 36 episodes and 34 episodes and 13 episodes and 6 episodes and 12 episodes
immobility (Male Sprague-Dawley rats): significantly decreased
tendency to climb or burst (Male Sprague-Dawley rats): increased the tendency to climb or burst
tendency to swim (Male Sprague-Dawley rats): increased the tendency to swim
